Laboratory results published in patent US4847295A, “Cycloalkyl-substituted 4-aminophenyl halo derivatives and process for their preparation” (Farmitalia Carlo Erba S.r.l., priority 1987, dated 1989).

Key:
[1] = molecular target: T1, human placental aromatase (Homo sapiens, UniProt P11511); experiment: Inhibition of human placental aromatase in vitro (3H2O release from labelled androstenedione, microsomal fraction); format: biochemical; conditions: for Relative potency: versus aminoglutethimide (1 by definition)
T1 construct: isolated from the microsomal fraction of human placental tissue; from tissue; host or cells: human placenta, microsomal fraction
T1 sequence (P11511 1-503): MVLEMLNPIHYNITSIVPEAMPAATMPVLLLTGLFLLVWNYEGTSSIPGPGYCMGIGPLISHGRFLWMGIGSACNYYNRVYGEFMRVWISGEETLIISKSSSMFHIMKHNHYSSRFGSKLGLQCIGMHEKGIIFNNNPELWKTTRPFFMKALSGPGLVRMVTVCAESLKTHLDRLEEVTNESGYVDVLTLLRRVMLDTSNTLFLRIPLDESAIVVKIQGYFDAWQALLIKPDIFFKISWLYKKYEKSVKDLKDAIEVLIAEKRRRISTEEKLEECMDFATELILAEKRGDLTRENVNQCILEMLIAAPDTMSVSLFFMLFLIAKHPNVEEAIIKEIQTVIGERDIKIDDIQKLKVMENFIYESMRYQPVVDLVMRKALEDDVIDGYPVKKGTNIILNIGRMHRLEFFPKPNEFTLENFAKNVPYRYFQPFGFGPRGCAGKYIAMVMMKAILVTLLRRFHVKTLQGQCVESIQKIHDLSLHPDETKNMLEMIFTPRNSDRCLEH
Description: The assay of the aromatase inhibition in vitro was carried out as follows: the enzyme system was isolated from the microsomal fraction of human placental tissue according to standard procedure.
All incubations were carried out in a shaking water bath at 37° C. in air in 10 mM potassium phosphate buffer, pH 7.5, which contained 100 mM Kcl, 1 mM EDTA and 1 mM dithiothreitol. The experiments were carried out in 1 ml incubation volume containing 50 nM 4-[^3 H]androstenedione, various concentrations of the inhibitors. 100 μm NADPH and 0.05 mg of microsomal proteins. After 15 minutes of incubation the reaction was stopped by the addition of chloroform (5 ml).
After centrifugation at 1500 xg for 5 minutes, aliquots (0.5 ml) were removed from the water phase for determination of ^3 H2 O formed.

[2] = test system: aromatase; conditions: reported in literature; cited from earlier work

| IC50 ([1]; human placental microsomes, 50 nM 4-[3H]androstenedione, 100 μm NADPH, pH 7.5, 37° C., 15 min) [nM] | Relative potency [1] | SMILES | aromatase-inhibiting action (in words) [2] |
| --- | --- | --- | --- |
| 330 | 6.4 | Nc1ccc(C(C(=O)NC2CCCCC2)C(F)(F)F)cc1 (racemic) [FCE 25331, N-cyclohexyl-2-(4'-aminophenyl)-3,3,3-trifluoropropanamide] | – |
| – | 1.7 | Nc1ccc(C2CCCCC2)cc1 [4-cyclohexylaniline] | more or less selective aromatase-inhibiting action |
| – | – | CCC1(c2ccncc2)CCC(=O)NC1=O (centres unmarked) [4-pyridyl-3-ethyl-2,6-piperidinedione] | more or less selective aromatase-inhibiting action |
